# Source: US9546164B2 (GENENTECH, INC., priority 2013, dated 2017)
# Where a name gives a salt, the structure may show the parent alone.
# Biological target: hNav1.7 (Homo sapiens (Human), UniProt Q15858)
# Assay: Tritiated sulfonamide competitive binding to membranes from cells expressing hNav1.7 and the β1 subunit;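 note: Filter-bound radioactivity counted by liquid scintillation, nonspecific binding defined with excess unlabelled ligand, IC50 fitted to percent inhibition of specific binding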
# Conditions: not given
# Chain of hNav1.7 (Q15858 other isoform, or with tags, fused parts or gaps): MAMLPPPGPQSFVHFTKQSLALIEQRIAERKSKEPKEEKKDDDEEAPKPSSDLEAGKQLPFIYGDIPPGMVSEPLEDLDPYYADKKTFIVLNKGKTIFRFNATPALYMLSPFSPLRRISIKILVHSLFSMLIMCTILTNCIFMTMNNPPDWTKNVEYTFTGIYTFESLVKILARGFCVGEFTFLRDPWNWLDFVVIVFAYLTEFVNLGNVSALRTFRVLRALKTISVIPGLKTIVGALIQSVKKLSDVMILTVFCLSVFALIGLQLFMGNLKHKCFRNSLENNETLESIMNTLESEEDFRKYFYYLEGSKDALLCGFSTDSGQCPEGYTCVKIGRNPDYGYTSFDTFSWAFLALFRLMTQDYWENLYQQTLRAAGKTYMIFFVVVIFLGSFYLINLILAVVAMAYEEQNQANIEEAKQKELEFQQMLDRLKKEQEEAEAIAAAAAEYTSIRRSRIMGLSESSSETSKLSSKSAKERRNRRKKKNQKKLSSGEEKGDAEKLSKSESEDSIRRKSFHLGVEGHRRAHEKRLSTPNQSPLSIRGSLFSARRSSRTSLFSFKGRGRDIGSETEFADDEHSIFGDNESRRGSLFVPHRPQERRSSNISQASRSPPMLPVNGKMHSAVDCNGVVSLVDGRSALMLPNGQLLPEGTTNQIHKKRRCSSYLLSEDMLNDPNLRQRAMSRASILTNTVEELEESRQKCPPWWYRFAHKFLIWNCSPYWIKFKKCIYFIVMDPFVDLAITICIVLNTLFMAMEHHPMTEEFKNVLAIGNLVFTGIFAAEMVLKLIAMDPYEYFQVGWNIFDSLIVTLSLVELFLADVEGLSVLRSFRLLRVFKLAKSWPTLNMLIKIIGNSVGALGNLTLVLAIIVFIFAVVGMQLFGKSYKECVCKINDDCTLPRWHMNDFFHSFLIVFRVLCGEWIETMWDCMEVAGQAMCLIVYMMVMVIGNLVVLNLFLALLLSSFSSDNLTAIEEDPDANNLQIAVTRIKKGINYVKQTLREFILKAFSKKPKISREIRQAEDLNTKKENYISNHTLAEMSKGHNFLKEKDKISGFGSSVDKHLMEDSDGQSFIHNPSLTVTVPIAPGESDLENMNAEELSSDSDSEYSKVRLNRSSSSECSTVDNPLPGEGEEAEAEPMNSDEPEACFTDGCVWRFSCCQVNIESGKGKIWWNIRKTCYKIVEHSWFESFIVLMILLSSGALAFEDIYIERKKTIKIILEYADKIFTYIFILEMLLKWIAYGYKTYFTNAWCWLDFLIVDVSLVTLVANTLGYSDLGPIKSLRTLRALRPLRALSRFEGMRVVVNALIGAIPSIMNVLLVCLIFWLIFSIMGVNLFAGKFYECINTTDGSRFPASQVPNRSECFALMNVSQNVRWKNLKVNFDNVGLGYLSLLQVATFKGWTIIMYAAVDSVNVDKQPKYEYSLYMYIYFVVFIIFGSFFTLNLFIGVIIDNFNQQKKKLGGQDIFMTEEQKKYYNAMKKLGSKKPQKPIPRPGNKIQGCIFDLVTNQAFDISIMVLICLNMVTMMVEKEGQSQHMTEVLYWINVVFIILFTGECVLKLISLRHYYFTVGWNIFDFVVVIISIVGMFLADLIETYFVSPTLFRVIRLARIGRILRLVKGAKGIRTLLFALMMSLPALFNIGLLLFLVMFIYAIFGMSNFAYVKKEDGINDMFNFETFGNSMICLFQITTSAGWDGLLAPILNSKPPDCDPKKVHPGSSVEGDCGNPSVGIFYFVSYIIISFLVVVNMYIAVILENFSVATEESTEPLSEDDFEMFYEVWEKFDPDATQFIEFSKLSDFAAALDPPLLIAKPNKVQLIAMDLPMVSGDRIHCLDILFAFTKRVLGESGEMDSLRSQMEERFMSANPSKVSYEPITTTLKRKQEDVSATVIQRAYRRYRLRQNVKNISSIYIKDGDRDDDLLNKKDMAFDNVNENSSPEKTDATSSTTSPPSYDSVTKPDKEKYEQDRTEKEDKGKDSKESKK
# Chain of hNav1.7 (Q07699 19-218 partner): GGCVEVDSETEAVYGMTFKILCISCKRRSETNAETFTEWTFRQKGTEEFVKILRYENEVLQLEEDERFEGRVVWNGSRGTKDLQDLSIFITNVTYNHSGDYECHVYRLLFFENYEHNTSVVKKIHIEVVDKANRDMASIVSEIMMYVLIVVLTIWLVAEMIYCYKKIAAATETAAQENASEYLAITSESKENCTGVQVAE
row,SMILES,IC50 [nM]
1,"O=C(NS(=O)(=O)C1CC1)c1cc(C2CC2)c(CN2CCN(Cc3cc(Cl)cc(Cl)c3)CC2)cc1F [Example 518, 5-cyclopropyl-N-(cyclopropylsulfonyl)-4-((4-(3,5-dichlorobenzyl)piperazin-1-yl)methyl)-2-fluorobenzamide, trifluoroacetic acid salt]",8.2
2,"C[C@H](c1cc(Cl)cc(Cl)c1)N1CCC(COc2cc(F)c(C(=O)NS(=O)(=O)C3CC3)cc2C2CC2)CC1 [Example 269, (R)-5-cyclopropyl-N-(cyclopropylsulfonyl)-4-((1-(1-(3,5-dichlorophenyl)ethyl)piperidin-4-yl)methoxy)-2-fluorobenzamide]",3.4

# Same assay, conditions: read-out: Ligand Binding Assay; 100 pM [3H]compound, membranes with hNav1.7 and β1 subunit, 18 h, room temperature
row,SMILES,IC50 [nM]
1,"O=C(NS(=O)(=O)N1CCC1)c1cc(C2CC2)c(OCC2CC3CCC(C2)N3Cc2ccccc2)cc1F (centres unmarked) [Example 48, N-(azetidin-1-ylsulfonyl)-4-((8-benzyl-8-azabicyclo[3.2.1]octan-3-yl)methoxy)-5-cyclopropyl-2-fluorobenzamide]",2820
2,"CCC(c1cc(Cl)cc(Cl)c1)N1CCC(COc2cc(F)c(C(=O)NS(C)(=O)=O)cc2C2CC2)CC1 (centres unmarked) [Example 155, 5-Cyclopropyl-4-((1-(1-(3,5-dichlorophenyl)propyl)piperidin-4-yl)methoxy)-2-fluoro-N-(methylsulfonyl)benzamide]",2.02
3,"CC1(COc2cc(F)c(C(=O)NS(=O)(=O)C3CC3)cc2C2CC2)CN(c2ncc(Cl)cc2F)C1 [Example 483, 4-((1-(5-chloro-3-fluoropyridin-2-yl)-3-methylazetidin-3-yl)methoxy)-5-cyclopropyl-N-(cyclopropylsulfonyl)-2-fluorobenzamide]",5.2
4,"Cc1ccc(CN2CCC(COc3cc(F)c(C(=O)NS(C)(=O)=O)cc3C3CC3)CC2)cc1 [Example 93, 5-Cyclopropyl-2-fluoro-4-((1-(4-methylbenzyl)piperidin-4-yl)methoxy)-N-(methylsulfonyl)benzamide]",173
5,"O=C(NS(=O)(=O)C1CC1)c1cc(C2CC2)c(CN2CCC[C@H](Oc3cc(Cl)cc(Cl)c3)C2)cc1F [Example 53, (S)-5-cyclopropyl-N-(cyclopropylsulfonyl)-4-((3-(3,5-dichlorophenoxy)-piperidin-1-yl)methyl)-2-fluorobenzamide]",8
6,"O=C(NS(=O)(=O)N1CCC1)c1cc(C2CC2)c(O[C@H]2CCN(Cc3ccccc3)C2)cc1F [Example 45, (S)—N-(azetidin-1-ylsulfonyl)-4-((1-benzylyprrolidin-3-yl)oxy)-5-cyclopropyl-2-fluorobenzamide]",4580
7,"CCS(=O)(=O)NC(=O)c1cc(C2CC2)c(OCC2CCN([C@H](c3cc(Cl)cc(Cl)c3)C(C)(C)OC)CC2)cc1F (single isomer, unassigned) [Example 207]",1.7
8,"CS(=O)(=O)NC(=O)c1cc(C2CC2)c(OCC2(F)CN(Cc3ccccc3)C2)cc1F [Example 66, 4-((1-benzyl-3-fluoroazetidin-3-yl)methoxy)-5-cyclopropyl-2-fluoro-N-(methylsulfonyl)benzamide]",91
9,"CS(=O)(=O)NC(=O)c1cc(C2CC2)c(OCC2CN([C@H](c3ccccc3)c3ccccc3Cl)C2)cc1F [Example 151, (R)-4-((1-((2-Chlorophenyl)(phenyl)methyl)azetidin-3-yl)methoxy)-5-cyclopropyl-2-fluoro-N-(methylsulfonyl)benzamide]",9.94
10,"CS(=O)(=O)NC(=O)c1cc(C2CC2)c(OCC2CCN(CCC(F)(F)F)CC2)cc1F [Example 117, 5-Cyclopropyl-2-fluoro-N-(methylsulfonyl)-4-((1-(3,3,3-trifluoropropyl)piperidin-4-yl)methoxy)benzamide]",411
11,"CS(=O)(=O)NC(=O)c1cc(C2CC2)c(O[C@@H]2CCCN(CC3(C(F)(F)F)CCC3)C2)cc1F [Example 328, (R)-5-cyclopropyl-2-fluoro-N-(methylsulfonyl)-4-((1-((1-(trifluoromethyl)cyclobutyl)methyl)piperidin-3-yl)oxy)benzamide]",6.4
12,"C[C@H](c1ccc(Cl)c(Cl)c1)N1CCC(COc2cc(F)c(C(=O)NS(C)(=O)=O)cc2C2CC2)CC1 (single isomer, unassigned) [Example 214]",3.1
